Assay results published in US9938335B2, “Glucagon and GLP-1 co-agonist compounds” (Eli Lilly and Company, priority 2015, dated 2018).
Marks after values point to notes of the source that are not given here.

How the values were obtained:
[1] = tested on: DIO mice (C57BL/6); experiment: Oral Glucose Tolerance Test (OGTT) in DIO mice; format: in vivo, mouse; conditions: for Glucose AUC (% of vehicle): male DIO mice, OGTT (2 g/kg) 16 hours post injection
Description: Diet-induced obese (DIO) mouse model is a model of insulin resistance. Five to six months old male DIO mice (C57BL/6) from Taconic Biosciences are used in this study. Animals are individually housed in a temperature-controlled (24° C.) facility with a 12 hour light/dark cycle (lights on 06:00), and free access to food and water. The acclimation period to the facility is two weeks. The day before the study, animals are randomized into groups based on their body weight. That same afternoon, animals are fasted in clean cages and dosed with vehicle (40 mM Tris-HCl, pH 8.0) or test articles by subcutaneous injection. The following morning, 16 hours post the peptide injection, fasting body weights are obtained to calculate glucose doses. Blood samples are taken to measure time zero glucose. Animals are then given an oral gavage of glucose (2 g/kg). Two glucose readings via glucometers were obtained at 15, 30, 60 and 120 minutes post oral glucose. The average of two glucose readings is reported at each time point and an area under the curve is calculated. Statistics were analyzed using ANOVA with Dunnett's comparison by JMP 6; significance is denoted at p≤0.05 vs. vehicle.

[2] = tested on: STZ-treated DIO mice (C57BL/6); experiment: OGTT in Streptozotocin (STZ)-treated DIO mice; format: in vivo, mouse; conditions: for Glucose AUC (% of vehicle): male STZ mice, OGTT (2 g/kg) 16 hours post injection
Description: STZ-treated mouse model is a model of early diabetes. Five to six months old male DIO mice (C57BL/6) from Taconic Biosciences are used in this study. Animals are individually housed in a temperature-controlled (24° C.) facility with a 12 hour light/dark cycle (lights on 6:00), and free access to food and water. After two weeks acclimation to the facility, mice are injected intraperitoneally with 50 mg/kg of STZ on Tuesday and Friday. Two weeks post the injection, animals with glucose levels between 180-300 mg/dL at 09:00 are selected for the OGTT study. The day before the study, animals are randomized into groups based on body weight and their glucose levels. Animals are treated with vehicle or testing articles by subcutaneous injection just prior to food removal overnight (16:00). The following morning at 08:00, 16 hours post compound injection, blood samples are taken to measure time zero glucose. Animals are given an oral dose of glucose of 2 g/kg. Glucose is measured 15, 30, 60, and 120 minutes post the oral glucose challenge. Statistics are analyzed using ANOVA with Dunnett's comparison by JMP 6. Significance is denoted at p≤0.05 vs. vehicle.

CC(C)C[C@H](NC(=O)[C@H](CC(C)C)NC(=O)[C@H](Cc1c[nH]c2ccccc12)NC(=O)[C@H](CCC(=O)O)NC(=O)[C@@H](NC(=O)[C@H](Cc1ccccc1)NC(=O)[C@H](CCC(=O)O)NC(=O)[C@H](CCCCNC(=O)COCCOCCNC(=O)COCCOCCNC(=O)CC[C@H](NC(=O)CCCCCCCCCCCCCCCCCCC(=O)O)C(=O)O)NC(=O)[C@H](C)NC(=O)[C@H](CCCCN)NC(=O)[C@H](CCCCN)NC(=O)[C@H](CCC(=O)O)NC(=O)[C@H](CC(=O)O)NC(=O)[C@H](CC(C)C)NC(=O)[C@H](Cc1ccc(O)cc1)NC(=O)[C@H](CCCCN)NC(=O)[C@H](CO)NC(=O)[C@H](Cc1ccc(O)cc1)NC(=O)[C@H](CC(=O)O)NC(=O)[C@H](CO)NC(=O)[C@@H](NC(=O)[C@H](Cc1ccccc1)NC(=O)[C@@H](NC(=O)CNC(=O)[C@H](CCC(N)=O)NC(=O)C(C)(C)NC(=O)[C@@H](N)Cc1c[nH]cn1)[C@@H](C)O)[C@@H](C)O)C(C)C)C(=O)N[C@@H](CCC(=O)O)C(=O)NCC(=O)NCC(=O)N1CCC[C@H]1C(=O)N[C@@H](CO)C(=O)N[C@@H](CO)C(=O)NCC(N)=O [Compound 2]
Glucose AUC (% of vehicle) ([1]; 1 nmol/kg sc): 76* % of vehicle | Glucose AUC (% of vehicle) ([1]; 3 nmol/kg sc): 50* % of vehicle | Glucose AUC (% of vehicle) ([1]; 10 nmol/kg sc): 39* % of vehicle | glucose during the tolerance test ([1]; male DIO mice, 1, 3 and 10 nmol/kg): dose-dependent decrease in glucose | Glucose AUC (% of vehicle) ([2]; 1 nmol/kg sc): 70* % of vehicle | Glucose AUC (% of vehicle) ([2]; 3 nmol/kg sc): 48* % of vehicle | Glucose AUC (% of vehicle) ([2]; 10 nmol/kg sc): 35* % of vehicle | glucose excursion during the tolerance test ([2]; male STZ mice, 1, 3 and 10 nmol/kg): dose dependent decrease in glucose excursion
